In paper PMC6753678, “Fueling Open Innovation for Malaria Transmission-Blocking Drugs: Hundreds of Molecules Targeting Early Parasite Mosquito Stages” (Frontiers in Microbiology, 2019):
Like-named read-outs stand apart in the source and are kept apart here.

Columns and labels:
[1] = system: P. berghei ookinete development; settings: for % inhibition, Replicate A / % inhibition, Replicate B: primary screen at 1 μM
[2] = system: 3D7-strain P. falciparum asexual parasites; assay: P. falciparum asexual growth inhibition assay (Pf GIA); type: cell-based, Plasmodium falciparum; settings: dose response confirmation; read-out: Pf asexual growth inhibition assays IC50
How it was run: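 Parasites at 0.25% parasitemia, 2% hematocrit in Albumax-supplemented RPMI were exposed to compounds in dose response for 72 h at 37°C under 5% CO2/5% O2. Viability was read as LDH activity (NBT/diaphorase, A650 after freeze-thaw). Percent inhibition was calculated against chloroquine and DMSO controls, mean of three biological replicates.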

HepG2 cells = assay: HepG2 cytotoxicity assay; settings: for IC50: read-out: HepG2 cytotoxicity assay IC50, dose response confirmation; for Pb ODA (this manuscript) HepG2 cytoxicity: HepG2 cytotoxicity listed with the Pb ODA data set (this manuscript)
How it was run: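 Cells at 2,500 per well in MEM with 10% fetal bovine serum and 1% NEAA were exposed to test compounds for 48 h at 37°C, 5% CO2. Viability was read by fluorescence, with percent inhibition calculated against 50 μM doxorubicin (positive) and DMSO (negative) controls.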

[3] = read-out: Pb ODA IC50, this manuscript
[4] = read-out: Pb Ookinete development assay IC50, dose response confirmation
[5] = HepG2 values of the three screens unified
[6] = read-out: Pb ODA (this manuscript) IC50, P. berghei ookinete development assay, this manuscript
[7] = unified HepG2 value across the three screens

`Cc1[nH]c(C)c(-c2ccc(-c3ccccc3Cl)nc2)c(=O)c1Br` [TCMDC-136157] was tested, and the “Is compound selective in assay? Pb ODA active?” value (shortened to “Is compound selective”) ([1]; 1: YES, 0: NO) was 0 (0: NO), the “% inhibition, Replicate A” value [1] was 96.17% and the “% inhibition, Replicate B” value [1] was 90.55%. It also gave an IC50 [1, 3] of 0.43 µM, an IC50 [1, 4] of 0.432 µM and an IC50 [2] of 0.048 µM. The “HepG2 cytoxicity (Pb ODA, this manuscript)” value (HepG2 cells) was 0.14 µM, the Unified cytotox (HepG2 cells; [5]) was 0.14 µM and the IC50 (HepG2 cells) was 0.14 µM.

In the case of `Cc1[nH]c(C)c(-c2ccc(-c3cccc(Cl)c3)nc2)c(=O)c1Cl` [TCMDC-136300], the “Is compound selective” value ([1]; 1: YES, 0: NO) is reported as 1 (1: YES), the “% inhibition, Replicate A” value [1] is reported as 90.77% and the “% inhibition, Replicate B” value [1] is reported as 81.67%. For the same compound, the IC50 [1, 3] was 0.68 µM, the IC50 [1, 4] was 0.675 µM and the IC50 [2] was 0.203 µM. For the same compound, the “HepG2 cytoxicity (Pb ODA, this manuscript)” value (HepG2 cells) was 56.23 µM, the Unified cytotox (HepG2 cells; [5]) was 56.23 µM and the IC50 (HepG2 cells) was 56.2 µM.

In the case of `CC1(C)NC(N)=NC(=N)N1OCOc1ccc(Cl)cc1.Cl` [TCMDC-131734], the “Is compound selective” value [1] is reported as 0 (key: 1: YES; 0: NO), the “% inhibition, Replicate A” value [1] is reported as 89.86% and the “% inhibition, Replicate B” value [1] is reported as 40.05%. The IC50 [1, 6] was 2.62 µM, the IC50 [1, 4] was 2.62 µM and the IC50 [2] was less than 0.0002 µM. The “Pb ODA (this manuscript) HepG2 cytoxicity” value (HepG2 cells) was 0.0759 µM and the IC50 (HepG2 cells) was 0.0759 µM.

With `Cc1[nH]c(C)c(-c2ccc(OCc3cc(C(F)(F)F)cc(C(F)(F)F)c3)nc2)c(=O)c1Cl` [TCMDC-135814] the “Is compound selective” value ([1]; 1: YES, 0: NO) was 1 (1: YES), the “% inhibition, Replicate A” value [1] was 68.02% and the “% inhibition, Replicate B” value [1] was 98.05%. It also gave an IC50 [1, 3] of 0.16 µM, an IC50 [1, 4] of 0.161 µM and an IC50 [2] of 0.185 µM. For the same compound, the “HepG2 cytoxicity (Pb ODA, this manuscript)” value (HepG2 cells) was 1.66 µM, the Unified cytotox (HepG2 cells; [5]) was 1.66 µM and the IC50 (HepG2 cells) was 1.66 µM.

For `CCCCCCCc1ccc(-c2c(C)[nH]c(C)c(Cl)c2=O)cn1` [TCMDC-135816], the “Is compound selective” value ([1]; 1: YES, 0: NO) was 1 (1: YES), the “% inhibition, Replicate A” value [1] was 56.53% and the “% inhibition, Replicate B” value [1] was 81.98%. The IC50 [1, 3] was 0.58 µM, the IC50 [1, 4] was 0.581 µM and the IC50 [2] was 0.355 µM. For the same compound, the “HepG2 cytoxicity (Pb ODA, this manuscript)” value (HepG2 cells) was 30.90 µM, the Unified cytotox (HepG2 cells; [5]) was 30.90 µM and the IC50 (HepG2 cells) was 30.9 µM.

`Cc1[nH]c(C)c(-c2ccc(-c3ccccc3Cl)nc2)c(=O)c1Cl` [TCMDC-136303] was tested, and the “Is compound selective” value ([1]; 1: YES, 0: NO) was 1 (1: YES), the “% inhibition, Replicate A” value [1] was 118.12% and the “% inhibition, Replicate B” value [1] was 98.57%. For the same compound, the IC50 [1, 3] was 0.23 µM, the IC50 [1, 4] was 0.229 µM and the IC50 [2] was 0.248 µM. For the same compound, the Unified cytotox (HepG2 cells; [5]) was 100.00 µM and the IC50 (HepG2 cells) was 100 µM.

With `Br.CC[C@H]1CN2CCc3cc(OC)c(OC)cc3[C@@H]2C[C@@H]1C[C@H]1NCCc2c1cc(OC)c(O)c2I` [TCMDC-131829] the “Is compound selective” value [1] was 1 (key: 1: YES; 0: NO), the “% inhibition, Replicate A” value [1] was 45.92% and the “% inhibition, Replicate B” value [1] was 90.22%. For the same compound, the IC50 [1, 6] was 0.41 µM, the IC50 [1, 4] was 0.412 µM and the IC50 [2] was 0.098 µM. For the same compound, the “Pb ODA (this manuscript) HepG2 cytoxicity” value (HepG2 cells) was 5.43 µM and the IC50 (HepG2 cells) was 5.43 µM.

With `Cl.Nc1nc(N)c2c(ccc3c2cnn3S(=O)(=O)N2CCCC2)n1` [TCMDC-137852] the “Is compound selective” value [1] was 0 (key: 1: YES; 0: NO), the “% inhibition, Replicate A” value [1] was 40.87% and the “% inhibition, Replicate B” value [1] was 51.00%. The IC50 [1, 4] was 1.53 µM, the IC50 [2] was 0.0038 µM and the “Pb ODA (this manuscript) HepG2 cytoxicity” value (HepG2 cells) was 0.00412 µM. For the same compound, the IC50 (HepG2 cells) was 0.00412 µM.

For `CC1(C)N=C(N)N=C(N)N1OCCCc1ccccc1.Cl` [TCMDC-131689], the “Is compound selective” value ([1]; 1: YES, 0: NO) was 0 (0: NO), the “% inhibition, Replicate A” value [1] was 42.43% and the “% inhibition, Replicate B” value [1] was 56.50%. It also gave an IC50 [1, 3] of 2.54 µM, an IC50 [1, 4] of 2.54 µM and an IC50 [2] of less than 0.0002 µM. For the same compound, the “HepG2 cytoxicity (Pb ODA, this manuscript)” value (HepG2 cells) was 0.001 µM, the Unified cytotox (HepG2 cells; [5]) was 0.001 µM and the IC50 (HepG2 cells) was 0.001 µM.

For `Cc1[nH]c(C)c(-c2csc3ccccc23)c(=O)c1Cl` [TCMDC-136017], the “Is compound selective” value ([1]; 1: YES, 0: NO) was 1 (1: YES), the “% inhibition, Replicate A” value [1] was 37.82% and the “% inhibition, Replicate B” value [1] was 76.50%. For the same compound, the IC50 [1, 3] was 1.84 µM, the IC50 [1, 4] was 1.84 µM and the IC50 [2] was 2.26 µM. For the same compound, the IC50 (HepG2 cells) was 100 µM and the “Unified cytotox” value (HepG2 cells; [7]) was 100.00 µM.

For `CC(C)CN1CCN(c2nc(C#N)c3c(c2C(=S)NC2CCCCC2)CC(C)(C)OC3)CC1` [TCMDC-124173], the “Is compound selective” value ([1]; 1: YES, 0: NO) was 1 (1: YES), the “% inhibition, Replicate A” value [1] was 37.56% and the “% inhibition, Replicate B” value [1] was 54.94%. For the same compound, the IC50 [1, 3] was 4.89 µM, the IC50 [1, 4] was 4.89 µM and the IC50 [2] was 0.415 µM. The IC50 (HepG2 cells) was 100 µM and the “Unified cytotox” value (HepG2 cells; [7]) was 100.00 µM.

`COc1ccc2nccc(NC(=O)C3CCC(NCc4cnc(SC)c([N+](=O)[O-])c4)CC3)c2n1.Cl` (stereo not shown) [TCMDC-131238] was tested, and the “Is compound selective” value [1] was 0 (key: 1: YES; 0: NO), the “% inhibition, Replicate A” value [1] was 77.59% and the “% inhibition, Replicate B” value [1] was 35.00%. It also gave an IC50 [1, 6] of 2.41 µM, an IC50 [1, 4] of 2.41 µM and an IC50 [2] of 0.676 µM. The “Pb ODA (this manuscript) HepG2 cytoxicity” value (HepG2 cells) was 14.62 µM and the IC50 (HepG2 cells) was 14.6 µM.

`Cc1cc(=O)c(-c2cccc(Oc3ccc(Cl)cc3)c2)c(C)[nH]1` [TCMDC-137415] was tested, and the “Is compound selective” value ([1]; 1: YES, 0: NO) was 1 (1: YES), the “% inhibition, Replicate A” value [1] was 51.13% and the “% inhibition, Replicate B” value [1] was 85.04%. For the same compound, the IC50 [1, 3] was 0.71 µM, the IC50 [1, 4] was 0.706 µM and the IC50 [2] was 0.396 µM. The “HepG2 cytoxicity (Pb ODA, this manuscript)” value (HepG2 cells) was 35.48 µM, the Unified cytotox (HepG2 cells; [5]) was 35.48 µM and the IC50 (HepG2 cells) was 35.5 µM.

With `CN(C)c1ccc(C=Cc2nc(=O)c3ccccc3o2)cc1` [TCMDC-123870] the “Is compound selective” value [1] was 1 (key: 1: YES; 0: NO), the “% inhibition, Replicate A” value [1] was 83.52% and the “% inhibition, Replicate B” value [1] was 65.62%. For the same compound, the IC50 [1, 6] was 0.15 µM, the IC50 [1, 4] was 0.155 µM and the IC50 [2] was 0.041 µM. For the same compound, the “Pb ODA (this manuscript) HepG2 cytoxicity” value (HepG2 cells) was 100.00 µM and the IC50 (HepG2 cells) was 100 µM.

With `Cc1cc(=O)c(-c2ccc(Oc3cccc(C(F)(F)F)c3)cc2)c(C)[nH]1` [TCMDC-133308] the “Is compound selective” value [1] was 1 (key: 1: YES; 0: NO), the “% inhibition, Replicate A” value ([1]; 1 µM) was 59.11% and the “% inhibition, Replicate B” value ([1]; 1 µM) was 56.29%. The IC50 [1, 6] was 0.73 µM, the IC50 [1, 4] was 0.733 µM and the IC50 [2] was 0.385 µM. The “Pb ODA (this manuscript) HepG2 cytoxicity” value (HepG2 cells) was 14.45 µM and the IC50 (HepG2 cells) was 14.5 µM.

For `CCN(CC)CCCNc1c2ccccc2nc2ccccc12.Cl` [TCMDC-125517], the “Is compound selective” value ([1]; 1: YES, 0: NO) was 1 (1: YES), the “% inhibition, Replicate A” value [1] was 20.29% and the “% inhibition, Replicate B” value [1] was 90.60%. For the same compound, the IC50 [1, 3] was 1.61 µM, the IC50 [1, 4] was 1.61 µM and the IC50 [2] was 0.05 µM. The “HepG2 cytoxicity (Pb ODA, this manuscript)” value (HepG2 cells) was 18.20 µM, the Unified cytotox (HepG2 cells; [5]) was 18.20 µM and the IC50 (HepG2 cells) was 18.2 µM.

With `Cl.Nc1nc(N)c2c(ccc3nn(S(=O)(=O)N4CCCC4)cc32)n1` [TCMDC-137854] the “Is compound selective” value [1] was 0 (key: 1: YES; 0: NO), the “% inhibition, Replicate A” value [1] was 55.32% and the “% inhibition, Replicate B” value [1] was 26.78%. It also gave an IC50 [1, 6] of 5.3 µM, an IC50 [1, 4] of 5.29 µM and an IC50 [2] of 0.144 µM. The “Pb ODA (this manuscript) HepG2 cytoxicity” value (HepG2 cells) was 0.12 µM and the IC50 (HepG2 cells) was 0.12 µM.

With `CCn1c(CN2CCC(C)CC2)nc2cc(NC(=O)c3cccs3)ccc21` [TCMDC-124730] the “Is compound selective” value ([1]; 1: YES, 0: NO) was 1 (1: YES), the “% inhibition, Replicate A” value [1] was 78.95% and the “% inhibition, Replicate B” value [1] was 101.97%. For the same compound, the IC50 [1, 4] was 0.35 µM, the IC50 [2] was 0.182 µM and the IC50 (HepG2 cells) was 75.9 µM. The “Unified cytotox” value (HepG2 cells; [7]) was 75.86 µM.

In the case of `CC(Oc1ccc(NC(=O)c2cccs2)cc1)C(=O)c1ccc(Cl)cc1` (stereo not shown) [TCMDC-125438], the “Is compound selective” value [1] is reported as 1 (key: 1: YES; 0: NO), the “% inhibition, Replicate A” value [1] is reported as 52.47% and the “% inhibition, Replicate B” value [1] is reported as 58.23%. For the same compound, the IC50 [1, 6] was 1.01 µM, the IC50 [1, 4] was 1.01 µM and the IC50 [2] was 0.512 µM. The “Pb ODA (this manuscript) HepG2 cytoxicity” value (HepG2 cells) was 100.00 µM and the IC50 (HepG2 cells) was 100 µM.
